Laboratory results taken from patent publication US8273774B2, “Phenoxypyridinylamide compounds” (AstraZeneca AB, priority 2008, dated 2012).

Target: recombinant Human Phosphodiesterase B2 (PDE4B2) (Homo sapiens, UniProt Q07343)
Assay: Human Phosphodiesterase B2 Radiometric Assay
Format: biochemical
Details: 0.1 μg/mL recombinant PDE4B2; preincubated at 30 C for 30 min; [3H]cyclic AMP 8 nM, stopped after 20 min; yttrium silicate SPA beads; read-out: PDE4B2 pIC50 (converted)
Procedure, shortened: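 SPA read-out: product 5′AMP binds yttrium silicate beads (added with 18 mM ZnSO4 after 20 min) in preference to [3H]cAMP substrate, given at 8 nM final.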

Sequence of recombinant Human Phosphodiesterase B2 (PDE4B2) (Q07343 1-564 isoform Q07343-2): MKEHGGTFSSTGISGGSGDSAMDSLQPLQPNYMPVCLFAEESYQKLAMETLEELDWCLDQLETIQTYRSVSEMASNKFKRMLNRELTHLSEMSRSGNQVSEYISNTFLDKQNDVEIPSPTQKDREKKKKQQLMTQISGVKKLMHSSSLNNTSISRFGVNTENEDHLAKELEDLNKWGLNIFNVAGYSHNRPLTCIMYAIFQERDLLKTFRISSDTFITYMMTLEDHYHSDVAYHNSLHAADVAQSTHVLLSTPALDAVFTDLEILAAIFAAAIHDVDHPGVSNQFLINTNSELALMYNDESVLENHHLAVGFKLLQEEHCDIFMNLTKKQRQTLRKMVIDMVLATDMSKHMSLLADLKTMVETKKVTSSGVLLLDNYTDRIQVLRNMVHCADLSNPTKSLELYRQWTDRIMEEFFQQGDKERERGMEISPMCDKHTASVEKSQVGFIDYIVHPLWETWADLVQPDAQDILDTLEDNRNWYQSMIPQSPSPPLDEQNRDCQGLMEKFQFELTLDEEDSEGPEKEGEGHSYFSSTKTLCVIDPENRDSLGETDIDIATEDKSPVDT

SMILES: Cc1nc(C(=O)N[C@H]2CC[C@@H](NC(=O)c3cc(F)cnc3Oc3cccc(-c4ccc(CCN5CCCN(C)CC5)cc4)c3)CC2)cs1 [Example 87, N-((1s,4s)-4-(5-fluoro-2-(4′-(2-(4-methyl-1,4-diazepan-1-yl)ethyl)biphenyl-3-yloxy)nicotinamido)cyclohexyl)-2-methylthiazole-4-carboxamide]
- IC50: 0.0251 nM

SMILES: CCCN1CCN(Cc2ccc(-c3cccc(Oc4ncc(F)cc4C(=O)N[C@H]4CC[C@@H](NC(=O)c5cc(C)n(C)n5)CC4)c3)c(CN3CCOCC3)c2)CC1 [Example 181, N-((1s,4s)-4-(1,5-Dimethyl-1H-pyrazole-3-carboxamido)cyclohexyl)-5-fluoro-2-(2′-(morpholinomethyl)-4′-((4-propylpiperazin-1-yl)methyl)biphenyl-3-yloxy)nicotinamide]
- IC50: 0.251 nM

SMILES: Cc1cc(C(=O)N[C@H]2CC[C@@H](NC(=O)c3cc(F)cnc3Oc3cccc(-c4ccc(O)c(CN5CCN(C(C)C)CC5)c4)c3)CC2)nn1C [Example 77, N-((1s,4s)-4-(1,5-dimethyl-1H-pyrazole-3-carboxamido)cyclohexyl)-5-fluoro-2-(4′-hydroxy-3′-((4-isopropylpiperazin-1-yl)methyl)biphenyl-3-yloxy)nicotinamide]
- IC50: 0.0631 nM

SMILES: CC(C)c1ncc(C(=O)N[C@H]2CC[C@@H](NC(=O)c3cc(F)cnc3Oc3cccc(-c4ccc(O)cc4CN4CCOCC4)c3)CC2)s1 [Example 37, N-((1s,4s)-4-(5-fluoro-2-(4′-hydroxy-2′-(morpholinomethyl)biphenyl-3-yloxy)nicotinamido)cyclohexyl)-2-isopropylthiazole-5-carboxamide]
- IC50: 0.2 nM

SMILES: CN(C)C1(C(=O)NC2CCC(NC(=O)c3cc(F)cnc3Oc3cccc(-c4ccc(O)cc4CN4CCOCC4)c3)CC2)CC1 (stereo not drawn) [Example 17, N-((1s,4s)-4-(1-(dimethylamino)cyclopropanecarboxamido)cyclohexyl)-5-fluoro-2-(4′-hydroxy-2′-(morpholinomethyl)biphenyl-3-yloxy)nicotinamide]
- IC50: 1.58 nM

SMILES: Cc1nc(C(=O)N[C@H]2CC[C@@H](NC(=O)c3cc(F)cnc3Oc3cccc(-c4ccc(CCCN5CCNCC5)cc4)c3)CC2)cs1 [Example 74, N-((1s,4s)-4-(5-fluoro-2-(4′-(3-(piperazin-1-yl)propyl)biphenyl-3-yloxy)nicotinamido)cyclohexyl)-2-methylthiazole-4-carboxamide]
- IC50: 0.0251 nM

SMILES: Cc1csc(C(=O)N[C@H]2CC[C@@H](NC(=O)c3cc(F)cnc3Oc3cccc(-c4ccc(CN5CCN(CC(=O)NC(C)C)CC5)cc4CN4CCOCC4)c3)CC2)n1 [Example 198, N-((1s,4s)-4-(5-fluoro-2-(4′-((4-(2-(isopropylamino)-2-oxoethyl)piperazin-1-yl)methyl)-2′-(morpholinomethyl)biphenyl-3-yloxy)nicotinamido)cyclohexyl)-4-methylthiazole-2-carboxamide]
- IC50: 0.0251 nM

SMILES: CN1CCCN(Cc2cc(O)ccc2-c2cccc(Oc3ncc(F)cc3C(=O)N[C@H]3CC[C@@H](NC(=O)c4ccc5ccccc5n4)CC3)c2)CC1 [Example 27, N-((1s,4s)-4-(5-fluoro-2-(4′-hydroxy-2′-((4-methyl-1,4-diazepan-1-yl)methyl)biphenyl-3-yloxy)nicotinamido)cyclohexyl)quinoline-2-carboxamide]
- IC50: 0.631 nM

SMILES: Cc1cc(C(=O)N[C@H]2CC[C@@H](NC(=O)c3cc(F)cnc3Oc3cccc(-c4ccc(CCCN5CCNC[C@H]5C)cc4)c3)CC2)nn1C [Example 142, N-((1s,4s)-4-(1,5-dimethyl-1H-pyrazole-3-carboxamido)cyclohexyl)-5-fluoro-2-(4′-(3-((R)-2-methylpiperazin-1-yl)propyl)biphenyl-3-yloxy)nicotinamide]
- IC50: 0.0251 nM

SMILES: CN1CCCN(CCc2ccc(-c3cccc(Oc4ncc(F)cc4C(=O)N[C@H]4CC[C@@H](NC(=O)c5cc6n(n5)CCCC6)CC4)c3)cc2)CC1 [Example 171, N-((1s,4s)-4-(5-Fluoro-2-(4′-(2-(4-methyl-1,4-diazepan-1-yl)ethyl)biphenyl-3-yloxy)nicotinamido)cyclohexyl)-4,5,6,7-tetrahydropyrazolo[1,5-a]pyridine-2-carboxamide]
- IC50: 0.0794 nM

SMILES: CN(C)Cc1cc(O)ccc1-c1cccc(Oc2ncc(F)cc2C(=O)N[C@H]2CC[C@@H](NC(=O)c3cccc4[nH]cnc34)CC2)c1 [Example 52, N-((1s,4s)-4-(2-(2′-((dimethylamino)methyl)-4′-hydroxybiphenyl-3-yloxy)-5-fluoronicotinamido)cyclohexyl)-1H-benzo[d]imidazole-4-carboxamide]
- IC50: 0.0501 nM

SMILES: Cc1cccc(C(=O)N[C@H]2CC[C@@H](NC(=O)c3cc(F)cnc3Oc3cccc(-c4ccc(CCCN5CCNCC5)cc4)c3)CC2)n1 [Example 153, N-((1s,4s)-4-(5-fluoro-2-(4′-(3-(piperazin-1-yl)propyl)biphenyl-3-yloxy)nicotinamido)cyclohexyl)-6-methylpicolinamide]
- IC50: 0.0316 nM

SMILES: O=C(N[C@H]1CC[C@@H](NC(=O)c2cc(F)cnc2Oc2cccc(-c3ccc(CN4CCSCC4)cc3CN3CCOCC3)c2)CC1)c1csc(CO)n1 [Example 170, N-((1s,4s)-4-(5-Fluoro-2-(2′-(morpholinomethyl)-4′-(thiomorpholinomethyl)biphenyl-3-yloxy)nicotinamido)cyclohexyl)-2-(hydroxymethyl)thiazole-4-carboxamide]
- IC50: 0.0501 nM

SMILES: Cn1nc(C(=O)N[C@H]2CC[C@@H](NC(=O)c3cc(F)cnc3Oc3cccc(-c4ccc(CCCN5CCNCC5)cc4)c3)CC2)cc1C(F)(F)F [Example 160, 5-Fluoro-N-((1s,4s)-4-(1-methyl-5-(trifluoromethyl)-1H-pyrazole-3-carboxamido)cyclohexyl)-2-(4′-(3-(piperazin-1-yl)propyl)biphenyl-3-yloxy)nicotinamide]
- IC50: 0.01 nM

SMILES: Cc1cc(C(=O)N[C@H]2CC[C@@H](NC(=O)c3cc(F)cnc3Oc3cccc(-c4cccc(CCCN5CCN[C@@H](C)C5)c4)c3)CC2)nn1C [Example 139, N-((1s,4s)-4-(1,5-dimethyl-1H-pyrazole-3-carboxamido)cyclohexyl)-5-fluoro-2-(3′-(3-((S)-3-methylpiperazin-1-yl)propyl)biphenyl-3-yloxy)nicotinamide]
- IC50: 0.0794 nM

SMILES: C[C@@H]1CN(Cc2ccc(-c3cccc(Oc4ncc(F)cc4C(=O)N[C@H]4CC[C@@H](NC(=O)c5cccc6[nH]cnc56)CC4)c3)c(CN3CCOC[C@@H]3C)c2)C[C@H](C)N1 [Example 195, N-((1s,4s)-4-(2-(4′-(((3S,5R)-3,5-dimethylpiperazin-1-yl)methyl)-2′-(((S)-3-methylmorpholino)methyl)biphenyl-3-yloxy)-5-fluoronicotmamido)cyclohexyl)-1H-benzo[d]imidazole-4-carboxamide]
- IC50: 0.02 nM

SMILES: Cc1ccc(O)c(CN[C@H]2CC[C@@H](NC(=O)c3cc(F)cnc3Oc3cccc(-c4ccc(O)cc4CN4CCOCC4)c3)CC2)c1 [Example 7, 5-fluoro-2-(4′-hydroxy-2′-(morpholinomethyl)biphenyl-3-yloxy)-N-((1s,4s)-4-(2-hydroxy-5-methylbenzylamino)cyclohexyl)nicotinamide]
- IC50: 6.31 nM

SMILES: Cc1nc(C(=O)N[C@H]2CC[C@@H](NC(=O)c3cc(F)cnc3Oc3cccc(-c4ccc(CN5CCCOCC5)cc4)c3)CC2)cs1 [Example 55, N-((1s,4s)-4-(2-(4′-((1,4-oxazepan-4-yl)methyl)biphenyl-3-yloxy)-5-fluoronicotinamido)cyclohexyl)-2-methylthiazole-4-carboxamide]
- IC50: 0.1 nM
